The record followed here is the supplement of paper PMC10307832.

Assay in all cases: relative viability (nuclei count vs DMSO), 5 days (fraction); higher = more cells survive
Compound in the test “Lestaurtinib + Foretinib”: C[C@]12O[C@H](C[C@]1(O)CO)n1c3ccccc3c3c4c(c5c6ccccc6n2c5c31)CNC4=O [Lestaurtinib] + COc1cc2c(Oc3ccc(NC(=O)C4(C(=O)Nc5ccc(F)cc5)CC4)cc3F)ccnc2cc1OCCCN1CCOCC1 [Foretinib] (partner 0.25 µM)
The gist of the method:
(§1)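 One day after seeding in 1536-well plates, lung cancer cell lines were dosed by pin tool. Dosing was either single-drug or a fixed anchor-drug dose plus five library-drug doses (not always all listed) in √10 steps. After 5 days, nuclei were stained in one fix-and-stain step and counted on 4× images, and relative viability is the nuclei count of treated wells over that of vehicle wells, given as the median of duplicate plates.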

Compound in test [1]: C[C@]12O[C@H](C[C@]1(O)CO)n1c3ccccc3c3c4c(c5c6ccccc6n2c5c31)CNC4=O [Lestaurtinib] + CS(=O)(=O)N1CCN(Cc2cc3nc(-c4cccc5[nH]ncc45)nc(N4CCOCC4)c3s2)CC1 [Pictilisib] (partner 1 µM)
The essentials: as §1

Compound in the test “TPCA-1 + OSI-027”: C1=CC(=CC=C1C2=CC(=C(S2)NC(=O)N)C(=O)N)F [TPCA-1] + COc1cccc2cc(-c3nc([C@H]4CC[C@H](C(=O)O)CC4)n4ncnc(N)c34)[nH]c12 [OSI-027] (partner 0.5 µM)
The essentials: as §1

Compound in test [2]: C[C@]12O[C@H](C[C@]1(O)CO)n1c3ccccc3c3c4c(c5c6ccccc6n2c5c31)CNC4=O [Lestaurtinib] + CC(=O)c1c(C)c2cnc(Nc3ccc(N4CCNCC4)cn3)nc2n(C2CCCC2)c1=O [Palbociclib] (partner 0.5 µM)
The essentials: as §1

As for HCC-78, the relative viability came to 0.51 in the test with Lestaurtinib + Foretinib (first compound 0.005 µM); 0.494 in the test with Lestaurtinib + Foretinib (first compound 0.01581 µM); 0.524 in the test with Lestaurtinib + Foretinib (first compound 0.05 µM); 0.545 with Lestaurtinib + Foretinib (first compound 0.1581 µM); 0.308 in the test with Lestaurtinib + Foretinib (first compound 0.5 µM); 0.19 in test [1] (first compound 0.005 µM). The relative viability in test [1] (first compound 0.01581 µM) came to 0.225; in test [1] (first compound 0.05 µM), 0.203; in test [1] (first compound 0.1581 µM), 0.136; in test [1] (first compound 0.5 µM), 0.169; with TPCA-1 + OSI-027 (first compound 0.04 µM), 0.411; with TPCA-1 + OSI-027 (first compound 0.1265 µM), 0.357. Further, the relative viability came out at 0.385 in the test with TPCA-1 + OSI-027 (first compound 0.4 µM); 0.335 with TPCA-1 + OSI-027 (first compound 1.265 µM); 0.337 with TPCA-1 + OSI-027 (first compound 4 µM); 0.453 in test [2] (first compound 0.005 µM); 0.545 in test [2] (first compound 0.01581 µM); 0.53 in test [2] (first compound 0.05 µM). In addition, the values for the relative viability in test [2] (first compound 0.1581 µM) and in test [2] (first compound 0.5 µM) were 0.557 and 0.427, respectively.

Turning to HCC-366, the relative viability in the test with Lestaurtinib + Foretinib (first compound 0.005 µM) was 0.939; with Lestaurtinib + Foretinib (first compound 0.01581 µM), 0.924; with Lestaurtinib + Foretinib (first compound 0.05 µM), 0.994; in the test with Lestaurtinib + Foretinib (first compound 0.1581 µM) it was 1.03; with Lestaurtinib + Foretinib (first compound 0.5 µM) it was 0.536; in test [1] (first compound 0.005 µM) it was 0.159. In addition, the relative viability in test [1] (first compound 0.01581 µM) was determined as 0.178; in test [1] (first compound 0.05 µM) it was 0.192; in test [1] (first compound 0.1581 µM), 0.101; in test [1] (first compound 0.5 µM), 0.0482; in the test with TPCA-1 + OSI-027 (first compound 0.04 µM), 1.07; with TPCA-1 + OSI-027 (first compound 0.1265 µM) it was 0.8. Besides, the relative viability with TPCA-1 + OSI-027 (first compound 0.4 µM) came out at 0.914; with TPCA-1 + OSI-027 (first compound 1.265 µM) it was 0.52; in the test with TPCA-1 + OSI-027 (first compound 4 µM), 0.0324; in test [2] (first compound 0.005 µM) it was 0.371; in test [2] (first compound 0.01581 µM) it was 0.424; in test [2] (first compound 0.05 µM) it was 0.471. The relative viability is 0.391 in test [2] (first compound 0.1581 µM) and 0.172 in test [2] (first compound 0.5 µM).

Take HCC-827: the relative viability in the test with Lestaurtinib + Foretinib (first compound 0.005 µM) was 1.02; with Lestaurtinib + Foretinib (first compound 0.01581 µM) it was 1.02; with Lestaurtinib + Foretinib (first compound 0.05 µM), 0.835; with Lestaurtinib + Foretinib (first compound 0.1581 µM) it was 0.803; with Lestaurtinib + Foretinib (first compound 0.5 µM), 0.202; in test [1] (first compound 0.005 µM), 1.13. The relative viability in test [1] (first compound 0.01581 µM) came out at 0.8; in test [1] (first compound 0.05 µM), 0.896; in test [1] (first compound 0.1581 µM) it was 0.833; in test [1] (first compound 0.5 µM), 0.388; with TPCA-1 + OSI-027 (first compound 0.04 µM), 0.793; with TPCA-1 + OSI-027 (first compound 0.1265 µM) it was 0.782. Moreover, the relative viability was 0.729 with TPCA-1 + OSI-027 (first compound 0.4 µM); 0.706 in the test with TPCA-1 + OSI-027 (first compound 1.265 µM); 0.503 in the test with TPCA-1 + OSI-027 (first compound 4 µM); 0.533 in test [2] (first compound 0.005 µM); 0.489 in test [2] (first compound 0.01581 µM); 0.444 in test [2] (first compound 0.05 µM). For the same cell line, the relative viability in test [2] (first compound 0.1581 µM) turned out to be 0.382; in test [2] (first compound 0.5 µM), 0.43.

Turning to HOP-62, the relative viability with Lestaurtinib + Foretinib (first compound 0.005 µM) amounted to 1.15; in the test with Lestaurtinib + Foretinib (first compound 0.01581 µM), 1.33; with Lestaurtinib + Foretinib (first compound 0.05 µM), 1.08; with Lestaurtinib + Foretinib (first compound 0.1581 µM) it was 1.06; with Lestaurtinib + Foretinib (first compound 0.5 µM) it was 0.343; in test [1] (first compound 0.005 µM), 0.742. The relative viability is 0.693 in test [1] (first compound 0.01581 µM); 0.642 in test [1] (first compound 0.05 µM); 0.604 in test [1] (first compound 0.1581 µM); 0.427 in test [1] (first compound 0.5 µM); 0.872 in the test with TPCA-1 + OSI-027 (first compound 0.04 µM); 0.748 in the test with TPCA-1 + OSI-027 (first compound 0.1265 µM). Moreover, the relative viability was found to be 0.96 with TPCA-1 + OSI-027 (first compound 0.4 µM); 0.574 with TPCA-1 + OSI-027 (first compound 1.265 µM); 0.716 with TPCA-1 + OSI-027 (first compound 4 µM); 0.491 in test [2] (first compound 0.005 µM); 0.539 in test [2] (first compound 0.01581 µM); 0.496 in test [2] (first compound 0.05 µM). The relative viability in test [2] (first compound 0.1581 µM) was 0.468; in test [2] (first compound 0.5 µM), 0.335.

For the cell line IA-LM, the relative viability was 1.37 with Lestaurtinib + Foretinib (first compound 0.005 µM); 1.4 in the test with Lestaurtinib + Foretinib (first compound 0.01581 µM); 1.53 in the test with Lestaurtinib + Foretinib (first compound 0.05 µM); 1.22 with Lestaurtinib + Foretinib (first compound 0.1581 µM); 0.59 with Lestaurtinib + Foretinib (first compound 0.5 µM); 0.547 in test [1] (first compound 0.005 µM). In addition, the relative viability is 0.691 in test [1] (first compound 0.01581 µM), 0.725 in test [1] (first compound 0.05 µM), 0.642 in test [1] (first compound 0.1581 µM) and 0.198 in test [1] (first compound 0.5 µM).

As to LC-2-ad, the relative viability with Lestaurtinib + Foretinib (first compound 0.005 µM) was 0.946; with Lestaurtinib + Foretinib (first compound 0.01581 µM), 0.903; with Lestaurtinib + Foretinib (first compound 0.05 µM), 0.817; with Lestaurtinib + Foretinib (first compound 0.1581 µM), 0.647; with Lestaurtinib + Foretinib (first compound 0.5 µM), 0.324; in test [1] (first compound 0.005 µM), 0.369. Moreover, the relative viability was determined as 0.333 in test [1] (first compound 0.01581 µM); 0.204 in test [1] (first compound 0.05 µM); 0.167 in test [1] (first compound 0.1581 µM); 0.113 in test [1] (first compound 0.5 µM); 0.971 in the test with TPCA-1 + OSI-027 (first compound 0.04 µM); 0.753 with TPCA-1 + OSI-027 (first compound 0.1265 µM). The relative viability in the test with TPCA-1 + OSI-027 (first compound 0.4 µM) came out at 0.813; in the test with TPCA-1 + OSI-027 (first compound 1.265 µM), 0.744; with TPCA-1 + OSI-027 (first compound 4 µM), 0.407; in test [2] (first compound 0.005 µM) it was 0.59; in test [2] (first compound 0.01581 µM) it was 0.527; in test [2] (first compound 0.05 µM), 0.418. The relative viability was 0.429 in test [2] (first compound 0.1581 µM) and 0.293 in test [2] (first compound 0.5 µM).

Take LCLC-97TM1: the relative viability with Lestaurtinib + Foretinib (first compound 0.005 µM) turned out to be 0.925; in the test with Lestaurtinib + Foretinib (first compound 0.01581 µM), 1.08; in the test with Lestaurtinib + Foretinib (first compound 0.05 µM), 0.556; with Lestaurtinib + Foretinib (first compound 0.1581 µM), 0.462; in the test with Lestaurtinib + Foretinib (first compound 0.5 µM), 0.238; in test [1] (first compound 0.005 µM), 0.197. Besides, the relative viability in test [1] (first compound 0.01581 µM) worked out at 0.163; in test [1] (first compound 0.05 µM), 0.138; in test [1] (first compound 0.1581 µM), 0.139; in test [1] (first compound 0.5 µM) it was 0.125; with TPCA-1 + OSI-027 (first compound 0.04 µM), 0.584; with TPCA-1 + OSI-027 (first compound 0.1265 µM), 0.323. In addition, the relative viability came to 0.486 with TPCA-1 + OSI-027 (first compound 0.4 µM); 0.411 with TPCA-1 + OSI-027 (first compound 1.265 µM); 0.283 in the test with TPCA-1 + OSI-027 (first compound 4 µM); 0.243 in test [2] (first compound 0.01581 µM); 0.133 in test [2] (first compound 0.05 µM); 0.134 in test [2] (first compound 0.1581 µM). Further, in test [2] (first compound 0.5 µM), the relative viability is 0.194.

Consider LCLC-103H, for which the relative viability with Lestaurtinib + Foretinib (first compound 0.005 µM) is 0.752; in the test with Lestaurtinib + Foretinib (first compound 0.01581 µM) it was 0.848; with Lestaurtinib + Foretinib (first compound 0.05 µM), 0.547; with Lestaurtinib + Foretinib (first compound 0.1581 µM) it was 0.485; with Lestaurtinib + Foretinib (first compound 0.5 µM) it was 0.261; in test [1] (first compound 0.005 µM), 0.61. Moreover, the relative viability in test [1] (first compound 0.01581 µM) was found to be 0.623; in test [1] (first compound 0.05 µM), 0.521; in test [1] (first compound 0.1581 µM), 0.443; in test [1] (first compound 0.5 µM) it was 0.481; with TPCA-1 + OSI-027 (first compound 0.04 µM), 0.458; with TPCA-1 + OSI-027 (first compound 0.1265 µM), 0.44. Moreover, the relative viability with TPCA-1 + OSI-027 (first compound 0.4 µM) worked out at 0.485; in the test with TPCA-1 + OSI-027 (first compound 1.265 µM) it was 0.443; with TPCA-1 + OSI-027 (first compound 4 µM) it was 0.387; in test [2] (first compound 0.005 µM), 0.524; in test [2] (first compound 0.01581 µM) it was 0.506; in test [2] (first compound 0.05 µM) it was 0.497. For the same cell line, the values for the relative viability in test [2] (first compound 0.1581 µM) and in test [2] (first compound 0.5 µM) were 0.474 and 0.51, respectively.
